Measured values as given in US6211155A, “Peptide conjugates derived from thymic hormones, their use as a medicament and compositions containing them” (Institut European de Biologie Cellulaire, priority 1995, dated 2001).
Blank lines part the entries; values can stand above or below the substance they belong to. Where no end group is shown, it is not given here.

What was measured:
[1] = system: normal human keratinocytes; assay: Synthesis of 46-47 KD keratin by human keratinocytes in primary culture; assay type: cell-based; settings: compared with a control
Procedure: (§1) Culture of normal human keratinocytes
(§2) The epidermis is then dissociated under gentle mechanical action, or enzymically, in order to obtain the individual cells. Only the basal cells are capable of multiplying in vitro.
(§3) The culture is carried out at 37° C. in a controlled moist atmosphere ([…] --5% CO2).
(§4) In monolayer culture, the calcium concentration is between 0.05 and 0.1 mM. […] The synthesis of the keratinocytes is maintained. The intercellular spaces are wide: cell connections are maintained by microvillosities and not by tight junctions. While the tonofilaments of the perinuclear space can be seen, they are still not attached to the anchoring plaques.
(§5) Stratification can be induced by increasing the final calcium concentration in the culture medium to 1.2 mM. The formation of desmosomes then appears after 2 hours.
(§6) I ETF derivative No. IX, which has been lyophilized
in Dextran (40 g/l) and which is at a concen-
tration of 10^-6 M in the final culture medium.
II Crist. SIGMA thymopoietin - at a concentration of
10^-6 M in the final culture medium.
(§7) Human keratinocytes are cultured as described by Henning et al. (1983) or Fuchs et al. (1981). Air/liquid cultures are also carried out using the following methodology.
The cell markers which are selected are the low-molecular-weight 46/47 KD keratins, which are specific for the growth and cell differentiation of the germinative cells.
(§8) Indirect fluorescent labeling by the sandwich technique--48 hours after adding calcium to the culture medium (stratification).
rat antihuman 46-47 KD keratin antibody
FITC-labeled mouse antirat Ig G2 antibody.
(§9) Use of immunofluorescence, with graphic recording, for measuring cell markers.
(§10) Spectrofluorometric assays
(§11) "Perkin Elmer LS-50 B spectrofluorimeter".
(§12) on cell homogenate supernatants.
(§13) LOWRY technique using a Perkin Elmer UV spectrophotometer (cell homogenate supernatants).
(§14) The fluorescence intensity of the cells treated with ETF No. IX is assessed in comparison with the fluorescence intensity of the controls.

[2] = system: normal human keratinocytes; assay: Synthesis of keratohyalin (filaggrin) by human keratinocytes in primary culture; assay type: cell-based; settings: for Stimulation % (keratohyalin synthesis): compared with a control; for Keratin/protein mean (keratohyalin synthesis, Table III): proteins expressed in micrograms/ml
Procedure: as §1, §2, §3, §4, §5, §6
in Dextran (40 g/l) and which is at a concen- […]
II Crist. SIGMA thymopoietin - at a concentration of […]
as §7
The filaggrins are markers of keratohyalin.
as §8
human antikeratohyalin (filaggrin) antibody
FITC-labeled goat antihuman Ig G antibody.
as §9, §10, §11, §12, §13, §14

Ia+ Langerhans cells = assay: Ia+ Langerhans cell density after topical application to mouse ear; assay type: in vivo, C57-BL/6 mice; settings: for Number of Ia+ cells per mm^2 of epidermis, batch 1 / Number of Ia+ cells per mm^2 of epidermis, batch 2 / Number of Ia+ cells per mm^2 of epidermis, batch 3 / Number of Ia+ cells per mm^2 of epidermis, batch 4 / Number of Ia+ cells per mm^2 of epidermis, Mean: C 57 BL/6 mice; for Number of Ia+ cells per mm^2 of epidermis, Mean: 4 batches; for Ia+ cells %: relative to PG controls
Procedure: (§15) I--Experimental Samples--Code: ETF
(§16) In solution in propylene glycol at a concentration of 10^-5 M/ml
(§17) 5 to 7-week-old male C 57-BL/6 mice, which are divided into groups of 4 per cage, and which have free access to water and food and which are subjected to a photoperiod of 12 h of light per 24 hours, are given a topical application of the peptide in propylene glycol (50 μl vol) on the dorsal surface of the ear daily for 5 consecutive days.
(§18) The animals are sacrificed on day 6. The ears are removed, with the dorsal and ventral surfaces being separated.
(§19) The tissues of the dorsal surface are immersed in Na EDTA (0.020 M) at 37° C. for 2 h.
(§20) After incubation, the epidermis is removed in the form of an intact sheet, fixed with acetone and rehydrated in PBS (phosphate buffer).
(§21) The Thy 1-2+ and Ia+ EDC (epidermal dendritic cells) are identified by indirect immunofluorescence double labeling.
(§22) In the case of each epidermal sheet, the number of cells per mm^2 is determined using the peripheral regions of the same surface.
The EDC (epidermal dendritic cells) carrying the Ia+ marker were identified using an anti-Ia+ monoclonal antibody.
The epidermal sheets are fixed with acetone and then incubated, at 37° C. for 1 h, in the presence of the anti-Ia+ monoclonal antibody, which has been labeled by the indirect immunoperoxidase method (Kit).
After having been incubated at 37° C. for 10 minutes with a solution of aminoethylcarbazole, the preparation is washed with PBS.
(§23) In the case of each epidermal sheet, the number of Ia+ Langerhans cells or Thy 1.2+ EDCs per square millimeter was determined by means of immunofluorescence, using a confocal Zeiss microscope which was equipped for this purpose, in four peripheral areas of the same surface. At least four animals were studied in each of the groups. The density of Ia+ Langerhans cells and Thy 1.2+ EDCs is shown for each measurement.

[3] = system: Thy 1.2+ thymocytes of the epidermis; assay: Thy 1.2+ epidermal cell density after topical application to mouse ear (immunofluorescence); assay type: in vivo, C57-BL/6 mice; settings: for Number of Thy 1.2+ cells per mm^2 of epidermis, batch 1 / Number of Thy 1.2+ cells per mm^2 of epidermis, batch 2 / Number of Thy 1.2+ cells per mm^2 of epidermis, batch 3 / Number of Thy 1.2+ cells per mm^2 of epidermis, batch 4 / Number of Thy 1.2+ cells per mm^2 of epidermis, Mean: C 57 BL/6 mice; for Number of Thy 1.2+ cells per mm^2 of epidermis, Mean: 4 batches; for Thy 1.2+ cells % T: relative to PG controls
Procedure: as §15, §16, §17, §18, §19, §20, §21, §22
The Thy 1.2+ EDC were identified by indirect immunofluorescence double labeling. The epidermal sheets were fixed with acetone and then rehydrated in PBS.
The tissues were labeled simultaneously, at 4° C. for 16 h, with mouse anti-Thy 1.2+ antibody which was diluted 1:100. The tissue samples were washed three times in PBS for 60 min and then incubated, at 37° C. for 60 min, either with goat antimouse antibody which was coupled to rhodamine and diluted 1:20, or with goat antirabbit antibody which was coupled to fluorescein (fluorescine and diluted 1:20 in PBS. The tissues were then washed in PBS before being mounted as previously described.
as §23

Stimulation % (46-47 KD keratin synthesis) ([1]; Concentration 10^-6 M): 19%
Substance: thymopoietin [reference compound]
Stimulation % (keratohyalin synthesis) ([2]; Concentration 10^-6 M): 35%
Keratin/protein mean (keratohyalin synthesis, Table III) ([2]; Concentration 10^-6 M): 4.99

Stimulation % (46-47 KD keratin synthesis) ([1]; Concentration 10^-6 M): 90%
Stimulation % (46-47 KD keratin synthesis) ([1]; Concentration 10^-8 M): 95%
Stimulation % (46-47 KD keratin synthesis) ([1]; Concentration 10^-10 M): 86%
Stimulation % (46-47 KD keratin synthesis) ([1]; Concentration 10^-12 M): 41%
Substance: A-Gln-Gly-Gly-Ser-Asn-NH2 (QGGSN; not fully specified (N-terminus, C-terminus)) [ETF No. IX, A not specified; lyophilized in Dextran for the test]
Stimulation % (keratohyalin synthesis) ([2]; Concentration 10^-6 M): 62%
Keratin/protein mean (keratohyalin synthesis, Table III) ([2]; Concentration 10^-6 M): 5.97
Stimulation % (keratohyalin synthesis) ([2]; Concentration 10^-8 M): 83%
Keratin/protein mean (keratohyalin synthesis, Table III) ([2]; Concentration 10^-8 M): 6.75
Stimulation % (keratohyalin synthesis) ([2]; Concentration 10^-10 M): 39%
Keratin/protein mean (keratohyalin synthesis, Table III) ([2]; Concentration 10^-10 M): 5.13
Stimulation % (keratohyalin synthesis) ([2]; Concentration 10^-12 M): 38%
Keratin/protein mean (keratohyalin synthesis, Table III) ([2]; Concentration 10^-12 M): 5.11

Substance: A-Arg-Lys-Asp-Val-NH2 (RKDV; not fully specified (N-terminus, C-terminus)) [ETF-XIX, A not specified for the tested sample]
Number of Ia+ cells per mm^2 of epidermis, batch 1 (Ia+ Langerhans cells; dose 0.10 Nanog.): 360 cells per mm^2
Number of Ia+ cells per mm^2 of epidermis, batch 2 (Ia+ Langerhans cells; dose 0.10 Nanog.): 390 cells per mm^2
Number of Ia+ cells per mm^2 of epidermis, batch 3 (Ia+ Langerhans cells; dose 0.10 Nanog.): 378 cells per mm^2
Number of Ia+ cells per mm^2 of epidermis, batch 4 (Ia+ Langerhans cells; dose 0.10 Nanog.): 320 cells per mm^2
Number of Ia+ cells per mm^2 of epidermis, Mean (Ia+ Langerhans cells; dose 0.10 Nanog.): 362.00 cells per mm^2
Ia+ cells % (Ia+ Langerhans cells; dose 0.10 Nanog.): 253%
Number of Ia+ cells per mm^2 of epidermis, batch 1 (Ia+ Langerhans cells; dose 0.50 Nanog.): 388 cells per mm^2
Number of Ia+ cells per mm^2 of epidermis, batch 2 (Ia+ Langerhans cells; dose 0.50 Nanog.): 398 cells per mm^2
Number of Ia+ cells per mm^2 of epidermis, batch 3 (Ia+ Langerhans cells; dose 0.50 Nanog.): 386 cells per mm^2
Number of Ia+ cells per mm^2 of epidermis, batch 4 (Ia+ Langerhans cells; dose 0.50 Nanog.): 400 cells per mm^2
Number of Ia+ cells per mm^2 of epidermis, Mean (Ia+ Langerhans cells; dose 0.50 Nanog.): 393.00 cells per mm^2
Ia+ cells % (Ia+ Langerhans cells; dose 0.50 Nanog.): 283%
Number of Ia+ cells per mm^2 of epidermis, batch 1 (Ia+ Langerhans cells; dose 1.00 Nanog.): 400 cells per mm^2
Number of Ia+ cells per mm^2 of epidermis, batch 2 (Ia+ Langerhans cells; dose 1.00 Nanog.): 410 cells per mm^2
Number of Ia+ cells per mm^2 of epidermis, batch 3 (Ia+ Langerhans cells; dose 1.00 Nanog.): 438 cells per mm^2
Number of Ia+ cells per mm^2 of epidermis, batch 4 (Ia+ Langerhans cells; dose 1.00 Nanog.): 415 cells per mm^2
Number of Ia+ cells per mm^2 of epidermis, Mean (Ia+ Langerhans cells; dose 1.00 Nanog.): 415.75 cells per mm^2
Ia+ cells % (Ia+ Langerhans cells; dose 1.00 Nanog.): 306%
Number of Thy 1.2+ cells per mm^2 of epidermis, batch 1 ([3]; dose 0.10 Nanog.): 216 cells per mm^2
Number of Thy 1.2+ cells per mm^2 of epidermis, batch 2 ([3]; dose 0.10 Nanog.): 210 cells per mm^2
Number of Thy 1.2+ cells per mm^2 of epidermis, batch 3 ([3]; dose 0.10 Nanog.): 219 cells per mm^2
Number of Thy 1.2+ cells per mm^2 of epidermis, batch 4 ([3]; dose 0.10 Nanog.): 212 cells per mm^2
Number of Thy 1.2+ cells per mm^2 of epidermis, Mean ([3]; dose 0.10 Nanog.): 214.25 cells per mm^2
Thy 1.2+ cells % T ([3]; dose 0.10 Nanog.): 143%
Number of Thy 1.2+ cells per mm^2 of epidermis, batch 1 ([3]; dose 0.50 Nanog.): 220 cells per mm^2
Number of Thy 1.2+ cells per mm^2 of epidermis, batch 2 ([3]; dose 0.50 Nanog.): 215 cells per mm^2
Number of Thy 1.2+ cells per mm^2 of epidermis, batch 3 ([3]; dose 0.50 Nanog.): 228 cells per mm^2
Number of Thy 1.2+ cells per mm^2 of epidermis, batch 4 ([3]; dose 0.50 Nanog.): 216 cells per mm^2
Number of Thy 1.2+ cells per mm^2 of epidermis, Mean ([3]; dose 0.50 Nanog.): 219.75 cells per mm^2
Thy 1.2+ cells % T ([3]; dose 0.50 Nanog.): 149%
Number of Thy 1.2+ cells per mm^2 of epidermis, batch 1 ([3]; dose 1.00 Nanog.): 227 cells per mm^2
Number of Thy 1.2+ cells per mm^2 of epidermis, batch 2 ([3]; dose 1.00 Nanog.): 238 cells per mm^2
Number of Thy 1.2+ cells per mm^2 of epidermis, batch 3 ([3]; dose 1.00 Nanog.): 230 cells per mm^2
Number of Thy 1.2+ cells per mm^2 of epidermis, batch 4 ([3]; dose 1.00 Nanog.): 225 cells per mm^2
Number of Thy 1.2+ cells per mm^2 of epidermis, Mean ([3]; dose 1.00 Nanog.): 230.00 cells per mm^2
Thy 1.2+ cells % T ([3]; dose 1.00 Nanog.): 161%
